Patent US20030073699A1, “Compounds and methods to treat cardiac failure and other disorders” (priority 1998, published 2003)

Key:
Format in all cases: biochemical
[1] = molecular target: p38α (Homo sapiens, UniProt Q16539); experiment: p38 kinase inhibition assay, activity for p38α; details: for IC50: inhibition of p38α, based on IC50 curves; for Fold increase Piperidinyl/Piperazinyl: p38α potency of piperidinyl versus corresponding piperazinyl compound
[2] = molecular target: p38 kinase (Homo sapiens, UniProt Q16539); experiment: Assay for p38 kinase inhibition (Example 19); details: tested as described in Example 19
Chain of p38 kinase (Q16539 whole entry): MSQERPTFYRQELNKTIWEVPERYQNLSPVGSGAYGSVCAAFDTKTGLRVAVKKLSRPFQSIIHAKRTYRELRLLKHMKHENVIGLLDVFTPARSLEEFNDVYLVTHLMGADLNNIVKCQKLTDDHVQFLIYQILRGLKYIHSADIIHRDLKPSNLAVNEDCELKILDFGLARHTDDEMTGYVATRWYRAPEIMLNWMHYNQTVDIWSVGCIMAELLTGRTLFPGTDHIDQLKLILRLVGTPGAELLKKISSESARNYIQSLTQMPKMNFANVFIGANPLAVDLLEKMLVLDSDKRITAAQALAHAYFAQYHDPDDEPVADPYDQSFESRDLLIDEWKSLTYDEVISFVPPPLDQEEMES
Protocol: (§1) The compounds to be tested were solubilized in DMSO and diluted into water to the desired concentrations. The p38 kinase was diluted to 10 μg/ml into a buffer containing 20 mM MOPS, pH 7.0,25 mM beta-glycerol phosphate, 2 mg/ml gelatin; 0.5 mM EGTA, and 4 mM DTT.
(§2) The reaction was carried out by mixing 20 μl test compound with 10 μl of a substrate cocktail containing 500 μg/ml peptide substrate and 0.2 mM ATP (+200 μCi/ml gamma-32P-ATP) in a 4× assay buffer. The reaction was initiated by the addition of 10 μl of p38 kinase. […] After a 40 minute incubation at room temperature, the reaction was stopped by the addition of 10 μl per reaction of 0.25 M phosphoric acid.
A portion of the reaction was spotted onto a disk of P81 phosphocellulose paper, the filters were dried for 2 minutes and then washed 4× in 75 mM H3PO4. The filters were rinsed briefly in 95% ethanol, dried, then placed in scintillation vials with liquid scintillation cocktail. […]
Counts incorporated are determined on a scintillation counter. Relative enzyme activity is calculated by subtracting background counts (counts measured in the absence of enzyme) from each result, and comparing the resulting counts to those obtained in the absence of inhibitor. IC50 values were determined with curve-fitting plots available with common software packages. Approximate IC50 values were calculated using formula […]

[3] = molecular target: p38β (Homo sapiens, UniProt Q15759); experiment: p38 kinase inhibition assay, specificity versus p38β; details: for IC50: read-out: P38-β IC50; for IC50 ratio β/α: specificity for p38α as compared to p38β
Chain of p38β (Q15759 whole entry): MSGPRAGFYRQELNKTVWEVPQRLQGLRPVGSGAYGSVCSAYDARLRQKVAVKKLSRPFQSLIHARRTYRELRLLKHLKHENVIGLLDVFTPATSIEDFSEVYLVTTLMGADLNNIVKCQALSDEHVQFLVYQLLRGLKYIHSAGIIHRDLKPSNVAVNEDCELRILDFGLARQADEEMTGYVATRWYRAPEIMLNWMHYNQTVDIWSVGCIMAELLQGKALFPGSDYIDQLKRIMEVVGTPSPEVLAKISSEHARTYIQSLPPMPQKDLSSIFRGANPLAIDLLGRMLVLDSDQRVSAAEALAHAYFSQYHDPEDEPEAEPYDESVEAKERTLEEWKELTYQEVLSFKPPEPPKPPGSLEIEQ
Protocol: as §1, §2
A portion of the reaction was spotted onto a disk of P81 phosphocellulose paper, the filters were dried for 2 minutes and then washed 4× in 75 mM H3PO4. The filters were rinsed briefly in 95% ethanol, dried, then placed in scintillation vials with liquid scintillation cocktail.
Alternatively, the substrate is previously biotinylated and the resulting reactions are spotted on SAM^2™ streptavidin filter squares (Promega). The filters are washed 4× in 2M NaCl, 4× in 2M NaCl with 1% phosphoric acid, 2× in water, and briefly in 95% ethanol. The filter squares are dried and placed in scintillation vials with liquid scintillation cocktail.
Counts incorporated are determined on a scintillation counter. Relative enzyme activity is calculated by subtracting background counts (counts measured in the absence of enzyme) from each result, and comparing the resulting counts to those obtained in the absence of inhibitor. IC50 values were determined with curve-fitting plots available with common software packages. Approximate IC50 values were calculated using formula
where A=fractional activity and i=total inhibitor concentration.
The compounds of the invention as well as those containing piperazine, generally, are specific for p38α as compared to p38β. […] It is seen that the specificity for α as opposed to β is generally of the order of ten-fold.

Chain of p38α (Q16539 whole entry): as the sequence (Q16539 whole entry) above

Compound	IC50 [1]	IC50 [2]	IC50 [3]	IC50 ratio β/α [3]	Fold increase Piperidinyl/Piperazinyl [1]
4-(4-benzyl piperazinyl)-indole-2-carboxamide [Piperazinyl 2]	> 30 µM				
O=C(c1c[nH]c2ccccc12)N1CCN(Cc2ccccc2)CC1 [Piperazinyl 3, reference compound]	4.74 µM		34 µM	7.17	
O=C(c1ccc2[nH]ccc2c1)N1CCN(Cc2ccccc2)CC1 [Piperazinyl 5]			25.8 µM	15.1	
O=C(c1ccc2cc[nH]c2c1)N1CCN(Cc2ccccc2)CC1 [Piperazinyl 6]	5.52 µM		39.1 µM	7.08	
O=C(c1c[nH]c2ccccc12)N1CCC(Cc2ccccc2)CC1 [Piperidinyl 3]	0.163 µM		1.77 µM	10.9	29.1
O=C(c1ccc2cc[nH]c2c1)N1CCC(Cc2ccccc2)CC1 [Piperidinyl 6, 4-benzylpiperidinyl-indole-6-carboxamide]			3.83 µM		
O=C(c1cccc2cc[nH]c12)N1CCC(Cc2ccccc2)CC1 [Piperidinyl 7]	7.04 µM				>4.3

Now from value to compound, other results behind:

IC50 [1]	IC50 [2]	IC50 [3]	IC50 ratio β/α [3]	Compound	Fold increase Piperidinyl/Piperazinyl [1]
	0.28 µM			CC1CC(Cc2ccccc2)CCN1C(=O)c1ccc2[nH]ccc2c1 (stereo not shown) [Example 18]	
1.54 µM		24 µM	15.6	O=C(c1cccc2[nH]ccc12)N1CCN(Cc2ccccc2)CC1 [Piperazinyl 4, reference compound]	
> 30 µM				O=C(c1cccc2cc[nH]c12)N1CCN(Cc2ccccc2)CC1 [Piperazinyl 7]	
2.66 µM				O=C(c1cc2ccccc2[nH]1)N1CCC(Cc2ccccc2)CC1 [Piperidinyl 2]	
0.159 µM		2.43 µM	15.3	O=C(c1cccc2[nH]ccc12)N1CCC(Cc2ccccc2)CC1 [Piperidinyl 4, 4-benzylpiperidinyl-indoie-4-carboxamide]	9.7
0.15 µM		3.02 µM		O=C(c1ccc2[nH]ccc2c1)N1CCC(Cc2ccccc2)CC1 [Piperidinyl 5, 4-benzylpiperidinyl-indole-5-carboxamide]	
